System: 648629-189-R-J1-PDC spheroids with HUVEC/MSC, viability
Assay: Anticancer human tumor 648629-189-R-J1-PDC patient-derived bladder carcinoma cell line growth inhibition [PI3K]
Conditions: for IC50: curve of first compound; for viability, T/C: stronger effect = lower value
Text: Combinatorial screen of targeted agents with the PI3K inhibitors inavolisib, alpelisib, duvelisib, and copanlisib in multi-cell type tumor spheroids
A high-throughput screen of multi-cell type tumor spheroids was designed to identify active combinations of targeted small molecules and PI3K pathway inhibitors. Complex spheroids include a stromal component modeled by human endothelial cells (HUVEC) and fibroblasts modeled by human mesenchymal stem cells (MSCs). The concentration ranges selected for each drug and investigational agent were based upon clinically achievable concentrations if the clinical Cmax of the agent was known.
Compounds. The drugs and investigational agents: inavolisib (NSC800729), alpelisib (NSC765974), duvelisib (NSC772469), copanlisib (NSC816437), ipatasertib (NSC767898), afuresertib (NSC778305), talazoparib (NSC767125), sapanisertib (NSC764658), selumetinib (NSC741078), tovorafenib (DAY101, NSC766906), vemurafenib (NSC761431), ravoxertinib (NSC781343), sotorasib (NSC818433), MRTX1133 (NSC 836407), abemaciclib (NSC 768073), palbociclib (NSC758247), venetoclax (NSC 766270), SY5609 (NSC837396), enzalutamide (NSC755605), and darolutamide (NSC825331), were obtained from the National Cancer Institute (NCI) Developmental Therapeutics Program Chemical Repository. The FDA-approved anticancer drug set is available from the NCI Developmental Therapeutics Program. […] The stock solutions were prepared in dimethyl sulfoxide (DMSO, Sigma-Aldrich, St. Louis, MO, cat. D2650) at 800-fold the tested concentration and stored at -70 degrees C prior to their use. All drugs and investigational agents were tested over a range starting from a high concentration at or near the clinical Cmax and decreasing in half-log increments. If the clinical Cmax for an agent had not been determined, the highest concentration tested was 10 microM.
Cell Culture. All cells were maintained in an incubator at 37 degrees C and 5% CO2 with 95% humidity. The PDC lines were cultured according to standard operating procedures established by the NCI PDMR (https://pdmr.cancer.gov/sops/default.htm). All PDCs were thawed and cultured in Matrigel-coated flasks prepared with a working solution of 1X Ham's F-12 nutrient mix, without supplementation (Invitrogen, Waltham, MA, cat. 11765054), 100 U/mL penicillin-streptomycin (Invitrogen, cat. 15140122), and 2.5% Matrigel (Corning Inc., Corning, NY, cat. 354248) for the first three passages. The 354836-022-R-J1-PDC, 475296-252-R-J1-PDC, and 997726-040-R-J2-PDC lines were cultured in 6A media, which includes advanced DMEM/F-12 (Thermo Fisher Scientific, cat. 12634028), 10 mM HEPES (Thermo Fisher Scientific, cat. 15630080), 1X GlutaMAX supplement (Thermo Fisher Scientific, cat. 35050061), 0.1 mg/mL primocin (InvivoGen, San Diego, CA, cat. ant-pm-2), 10% defined fetal bovine serum, heat inactivated (HyClone Laboratories Inc., Logan, UT, cat. SH30070.03HI), 50% L-WRN conditioned media (ATCC, cat. CRL-3276), 1.25 mM N-Acetyl-L-cysteine (Sigma-Aldrich, cat. A9165), 10 mM nicotinamide (Sigma-Aldrich, cat. N0636), 1X B-27 supplement (Thermo Fisher Scientific, cat. 17504044), 1X N-2 supplement (Thermo Fisher Scientific, cat. 17502048), and 10 microM Y-27632 dihydrochloride (Tocris Bioscience, Bristol, United Kingdom, cat. 1254). The 624824-186-R-J2-PDC line was cultured in 6C/Colon 1B media, which includes all 6A media components plus 50 ng/mL human EGF recombinant protein (Thermo Fisher Scientific, cat. PHG0311). […]

[1] = second compound 0.0316 µM, first compound 0.0316 µM
[2] = second compound 0.0316 µM, first compound 0.1 µM
[3] = second compound 0.0316 µM, first compound 0.316 µM
[4] = second compound 0.0316 µM, first compound 1 µM
[5] = second compound 0.0316 µM, first compound 3.16 µM
[6] = second compound 0.0316 µM, first compound 10 µM
[7] = second compound 0.1 µM, first compound 0.0316 µM
[8] = second compound 0.1 µM, first compound 0.1 µM
[9] = second compound 0.1 µM, first compound 0.316 µM
[10] = second compound 0.1 µM, first compound 1 µM
[11] = second compound 0.1 µM, first compound 3.16 µM
[12] = second compound 0.1 µM, first compound 10 µM
[13] = second compound 0.316 µM, first compound 0.0316 µM
[14] = second compound 0.316 µM, first compound 0.1 µM
[15] = second compound 0.316 µM, first compound 0.316 µM
[16] = second compound 0.316 µM, first compound 1 µM
[17] = second compound 0.316 µM, first compound 3.16 µM
[18] = second compound 0.316 µM, first compound 10 µM
[19] = second compound 1 µM, first compound 0.0316 µM
[20] = second compound 1 µM, first compound 0.1 µM
[21] = second compound 1 µM, first compound 0.316 µM
[22] = second compound 1 µM, first compound 1 µM
[23] = second compound 1 µM, first compound 3.16 µM
[24] = second compound 1 µM, first compound 10 µM
[25] = second compound 3.16 µM, first compound 0.0316 µM
[26] = second compound 3.16 µM, first compound 0.1 µM
[27] = second compound 3.16 µM, first compound 0.316 µM
[28] = second compound 3.16 µM, first compound 1 µM
[29] = second compound 3.16 µM, first compound 3.16 µM
[30] = second compound 3.16 µM, first compound 10 µM
[31] = second compound 10 µM, first compound 0.0316 µM
[32] = second compound 10 µM, first compound 0.1 µM
[33] = second compound 10 µM, first compound 0.316 µM
[34] = second compound 10 µM, first compound 1 µM
[35] = second compound 10 µM, first compound 3.16 µM
[36] = second compound 10 µM, first compound 10 µM
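Note: spheroids exposed to agents for seven days before reading.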
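Throughout, for viability, T/C: percent of vehicle control luminescence where 100% = DMSO treated spheroids.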

CCCS(=O)(=O)Nc1ccc(F)c(C(=O)c2c[nH]c3ncc(-c4ccc(Cl)cc4)cc23)c1F + Cc1nc(NC(=O)N2CCCC2C(N)=O)sc1-c1ccnc(C(C)(C)C(F)(F)F)c1
IC50 (second compound 0.0316 µM): 5.13 µM | IC50 (second compound 0.1 µM): 5.06 µM | IC50 (second compound 0.316 µM): 4.81 µM | IC50 (second compound 1 µM): 4.31 µM | IC50 (second compound 3.16 µM): 3.69 µM | IC50 (second compound 10 µM): < 0.0316 µM | viability, T/C [1]: 122% | viability, T/C [2]: 104% | viability, T/C [3]: 123% | viability, T/C [4]: 110% | viability, T/C [5]: 86.2% | viability, T/C [6]: 0.2% | viability, T/C [7]: 115% | viability, T/C [8]: 102% | viability, T/C [9]: 114% | viability, T/C [10]: 107% | viability, T/C [11]: 84% | viability, T/C [12]: 0.34% | viability, T/C [13]: 93.3% | viability, T/C [14]: 97.4% | viability, T/C [15]: 96.9% | viability, T/C [16]: 90.7% | viability, T/C [17]: 79% | viability, T/C [18]: 0.27% | viability, T/C [19]: 81.1% | viability, T/C [20]: 96.7% | viability, T/C [21]: 103% | viability, T/C [22]: 84.7% | viability, T/C [23]: 68.7% | viability, T/C [24]: 0.67% | viability, T/C [25]: 63.1% | viability, T/C [26]: 65.7% | viability, T/C [27]: 62% | viability, T/C [28]: 53.1% | viability, T/C [29]: 58% | viability, T/C [30]: 0.64% | viability, T/C [31]: 43.7% | viability, T/C [32]: 44.1% | viability, T/C [33]: 33.7% | viability, T/C [34]: 37% | viability, T/C [35]: 27.3% | viability, T/C [36]: 0.85%

C=CC(=O)N1CCN(c2nc(=O)n(-c3c(C)ccnc3C(C)C)c3nc(-c4c(O)cccc4F)c(F)cc23)C(C)C1 (stereo unspecified) + COc1c(OCCCN2CCOCC2)ccc2c3n(c(=NC(=O)c4cnc(N)nc4)nc12)CCN3
IC50 (second compound 0.00316 µM): > 10 µM | IC50 (second compound 0.01 µM): > 10 µM | IC50 (second compound 0.0316 µM): > 10 µM | IC50 (second compound 0.1 µM): > 10 µM | IC50 (second compound 0.316 µM): < 0.0316 µM | IC50 (second compound 1 µM): < 0.0316 µM | viability, T/C (second compound 0.00316 µM, first compound 0.0316 µM): 114% | viability, T/C (second compound 0.00316 µM, first compound 0.1 µM): 108% | viability, T/C (second compound 0.00316 µM, first compound 0.316 µM): 114% | viability, T/C (second compound 0.00316 µM, first compound 1 µM): 108% | viability, T/C (second compound 0.00316 µM, first compound 3.16 µM): 119% | viability, T/C (second compound 0.00316 µM, first compound 10 µM): 99.9% | viability, T/C (second compound 0.01 µM, first compound 0.0316 µM): 94.3% | viability, T/C (second compound 0.01 µM, first compound 0.1 µM): 91.3% | viability, T/C (second compound 0.01 µM, first compound 0.316 µM): 101% | viability, T/C (second compound 0.01 µM, first compound 1 µM): 113% | viability, T/C (second compound 0.01 µM, first compound 3.16 µM): 115% | viability, T/C (second compound 0.01 µM, first compound 10 µM): 79.1% | viability, T/C [1]: 83.4% | viability, T/C [2]: 81.9% | viability, T/C [3]: 104% | viability, T/C [4]: 94.6% | viability, T/C [5]: 107% | viability, T/C [6]: 87.8% | viability, T/C [7]: 57.3% | viability, T/C [8]: 64.5% | viability, T/C [9]: 63.5% | viability, T/C [10]: 79.1% | viability, T/C [11]: 81.3% | viability, T/C [12]: 77.2% | viability, T/C [13]: 18.8% | viability, T/C [14]: 22.1% | viability, T/C [15]: 29% | viability, T/C [16]: 25.5% | viability, T/C [17]: 38% | viability, T/C [18]: 35.3% | viability, T/C [19]: 3.7% | viability, T/C [20]: 4.13% | viability, T/C [21]: 4.67% | viability, T/C [22]: 6.38% | viability, T/C [23]: 7.09% | viability, T/C [24]: 8.01%

C=CC(=O)N1CCN(c2nc(=O)n(-c3c(C)ccnc3C(C)C)c3nc(-c4c(O)cccc4F)c(F)cc23)C(C)C1 (stereo unspecified) + Cc1nc(NC(=O)N2CCCC2C(N)=O)sc1-c1ccnc(C(C)(C)C(F)(F)F)c1
IC50 (second compound 0.0316 µM): > 10 µM | IC50 (second compound 0.1 µM): > 10 µM | IC50 (second compound 0.316 µM): > 10 µM | IC50 (second compound 1 µM): > 10 µM | IC50 (second compound 3.16 µM): > 10 µM | IC50 (second compound 10 µM): < 0.0316 µM | viability, T/C [1]: 99% | viability, T/C [2]: 101% | viability, T/C [3]: 107% | viability, T/C [4]: 105% | viability, T/C [5]: 113% | viability, T/C [6]: 82.8% | viability, T/C [7]: 92.2% | viability, T/C [8]: 102% | viability, T/C [9]: 107% | viability, T/C [10]: 99% | viability, T/C [11]: 106% | viability, T/C [12]: 90.3% | viability, T/C [13]: 83.5% | viability, T/C [14]: 95% | viability, T/C [15]: 95.6% | viability, T/C [16]: 96.3% | viability, T/C [17]: 107% | viability, T/C [18]: 84.7% | viability, T/C [19]: 73.4% | viability, T/C [20]: 82.7% | viability, T/C [21]: 87.5% | viability, T/C [22]: 86.5% | viability, T/C [23]: 88.2% | viability, T/C [24]: 79.7% | viability, T/C [25]: 61.2% | viability, T/C [26]: 57.5% | viability, T/C [27]: 65% | viability, T/C [28]: 72% | viability, T/C [29]: 72.5% | viability, T/C [30]: 70.8% | viability, T/C [31]: 39.5% | viability, T/C [32]: 40.7% | viability, T/C [33]: 42.4% | viability, T/C [34]: 41.5% | viability, T/C [35]: 47.1% | viability, T/C [36]: 38.4%
